Holding throughout (format): in vivo
Experiment [1] relates to barnyardgrass (Echinochloa crus-galli). Briefly: Test B flooded paddy test. The conditions noted are these: Echinochloa crus-galli, Flood, 250 g ai/ha; scale of 0 to 100 where 0 is no effect and 100 is complete control; read-out: Barnyardgrass plant response rating. Summed up:
(§1)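 Response scored visually against untreated controls, 0 = no effect and 100 = complete control, 13–15 d after treatment in the greenhouse. Compounds added to paddy water held 3 cm above soil surface. Treatment given at 2-leaf stage.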

The test system of the next experiment is rice (Oryra sativa). As to the kind of experiment: Test B flooded paddy test. The conditions noted are these: Oryza sativa, Flood, 250 g ai/ha; scale of 0 to 100 where 0 is no effect and 100 is complete control; read-out: Rice plant response rating. Summed up: as §1
The test system of experiment [2] is ducksalad (Heteranthera limosa). As to the kind of experiment: Test B flooded paddy test. To be noted: Heteranthera limosa, Flood, 250 g ai/ha; scale of 0 to 100 where 0 is no effect and 100 is complete control; read-out: Ducksalad plant response rating. Summed up: as §1
For experiment [3], the system named is sedge, umbrella (small-flower umbrella sedge, Cyperus difformis). Briefly: Test B flooded paddy test. The conditions noted are these: Cyperus difformis, Flood, 250 g ai/ha; scale of 0 to 100 where 0 is no effect and 100 is complete control; read-out: Sedge, Umbrella plant response rating. Summed up: as §1
Experiment [4] has as its system giant foxtail (Setaria faberii). As to the kind of experiment: Test A preemergence. The conditions noted are these: Setaria faberi, pre-emergence, 240 h; for pest or weed control at 125 g/ha: 125 g ai/ha, 0 to 100 scale where 0 is no effect and 100 is complete control; for pest or weed control at 500 g/ha: 500 g ai/ha. Summed up:
(§2)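 Preemergence soil spray on seeded pots or post-emergence spray on 1–2 leaf plants, in loam–sand blend. Greenhouse ~10 d. Visual rating 0–100 against untreated plants.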

Experiment [5] has the same test system. As to the kind of experiment: Test A postemergence. To be noted: Setaria faberi, post-emergence, 240 h, 125 g ai/ha. Summed up:
as §2

In experiment [6] the test system is barnyardgrass (Echinochloa crus-galli). As to the kind of experiment: Test A postemergence. To be noted: Echinochloa crus-galli, post-emergence, 240 h, 125 g ai/ha. A digest of the protocol:
as §2

Experiment [7] has as its system blackgrass (Alopecurus myosuroides). Briefly: Test A postemergence. The conditions noted are these: Alopecurus myosuroides, post-emergence, 240 h, 125 g ai/ha. Summed up:
as §2

Experiment [8] deals with pigweed (Amaranthus retroflexus). Briefly: Test A postemergence. To be noted: Amaranthus retroflexus, post-emergence, 240 h, 125 g ai/ha. Summed up: as §2
The test system of experiment [9] is Galium (catchweed bedstraw, Galium aparine). As to the kind of experiment: Test A postemergence. To be noted: Galium, post-emergence, 240 h, 125 g ai/ha. Summed up:
as §2

For experiment [10], the system named is ryegrass, Italian (Italian ryegrass, Lolium multiflorum). Briefly: Test A postemergence. To be noted: Lolium multiflorum, post-emergence, 240 h, 125 g ai/ha. Summed up: as §2
Experiment [11] relates to wheat (Triticum aestivum). Briefly: Test A postemergence. To be noted: Triticum aestivum, post-emergence, 240 h, 125 g ai/ha. A digest of the protocol:
as §2

In another experiment the test system is corn (Zea mays). As to the kind of experiment: Test A postemergence. To be noted: Zea mays, post-emergence, 240 h, 125 g ai/ha; for plant injury at 125 g/ha: postemergence, visual injury rating after approximately 10 d, read-out: Corn plant response rating (0 to 100 scale, 0 no effect, 100 complete control). Summed up:
as §2

Another experiment concerns Kochia (Kochia scoparia). Briefly: Test A postemergence. To be noted: Bassia scoparia, post-emergence, 240 h, 125 g ai/ha. Summed up:
as §2

Experiment [12] concerns ragweed (common ragweed, Ambrosia elatior). Briefly: Test A postemergence. To be noted: Ambrosia artemisiifolia, post-emergence, 240 h, 125 g ai/ha. A digest of the protocol:
as §2

Setting [13] is: preemergence, read-out: Foxtail, Giant plant response rating.
Where [14] appears, read: Preemergence, visual injury vs untreated controls after approximately 10 d, read-out: Foxtail, Giant plant response rating (0 to 100 scale where 0 is no effect and 100 is complete control).
Where [15] appears, read: postemergence, visual injury rating after approximately 10 d, read-out: Foxtail, Giant plant response rating (0 to 100 scale, 0 no effect, 100 complete control).
The mark [16] stands for this setting: postemergence, visual injury rating after approximately 10 d, read-out: Barnyardgrass plant response rating (0 to 100 scale, 0 no effect, 100 complete control).
Where [17] appears, read: postemergence, visual injury rating after approximately 10 d, read-out: Blackgrass plant response rating (0 to 100 scale, 0 no effect, 100 complete control).
[18] abbreviates: postemergence, visual injury rating after approximately 10 d, read-out: Pigweed plant response rating (0 to 100 scale, 0 no effect, 100 complete control).
Setting [19] is: postemergence, visual injury rating after approximately 10 d, read-out: Galium plant response rating (0 to 100 scale, 0 no effect, 100 complete control).
[20] abbreviates: postemergence, visual injury rating after approximately 10 d, read-out: Ryegrass, Italian plant response rating (0 to 100 scale, 0 no effect, 100 complete control).
[21] abbreviates: postemergence, visual injury rating after approximately 10 d, read-out: Wheat plant response rating (0 to 100 scale, 0 no effect, 100 complete control).
Where [22] appears, read: postemergence, visual injury rating after approximately 10 d, read-out: Kochia plant response rating (0 to 100 scale, 0 no effect, 100 complete control).
[23] abbreviates: postemergence, visual injury rating after approximately 10 d, read-out: Ragweed plant response rating (0 to 100 scale, 0 no effect, 100 complete control).

Our source for the pest or weed control, plant injury and Corn plant response rating (crop injury, 0 = no effect, 100 = complete kill) values is patent US12077503B2, “Substituted cyclic amides and their use as herbicides” (FMC CORPORATION, priority 2015, dated 2024).

Molecules are shown by their SMILES. Read-outs that look alike come from different tables or passages of the source.

`CN1C[C@H](c2cc(F)c(F)c(F)c2)[C@@H](C(=O)Nc2ccccc2F)C1=O` [Compound 878]: the pest or weed control at 250 g/ha in [1] amounted to 85%; in the experiment with rice (Oryra sativa), 0%; in experiment [2] it was 100%; in experiment [3], 0%. The pest or weed control at 125 g/ha in experiment [4] (setting [13]) stood at 100%; in experiment [5] (setting [15]) it was 80%; in experiment [6] (setting [16]), 100%; in [7] (setting [17]), 60%; in experiment [8] (setting [18]), 0%; in experiment [9] (setting [19]), 50%. Further, the pest or weed control at 125 g/ha in [10] (setting [20]) was found to be 40%; with Kochia (Kochia scoparia) (setting [22]), 20%; in experiment [12] (setting [23]) it was 20%. Further, in [4] (setting [14]), the pest or weed control at 500 g/ha is 100%. Besides, the plant injury at 125 g/ha in experiment [11] (setting [21]) amounted to 60%; in the experiment on corn (Zea mays), 50%.

For the compound `COc1cc(C(F)(F)F)ccc1[C@H]1CN(C)C(=O)[C@@H]1C(=O)Nc1cccc(F)c1F` [Compound 859], the pest or weed control at 250 g/ha in experiment [1] worked out at 65%; with rice (Oryra sativa) it was 0%; in experiment [2] it was 100%; in experiment [3], 0%. Moreover, the pest or weed control at 125 g/ha in [4] (setting [13]) stood at 90%; in experiment [5] (setting [15]), 80%; in experiment [6] (setting [16]), 80%; in experiment [7] (setting [17]), 30%; in experiment [8] (setting [18]) it was 20%; in experiment [9] (setting [19]), 50%. Further, the pest or weed control at 125 g/ha in [10] (setting [20]) was 20%; in the experiment on Kochia (Kochia scoparia) (setting [22]), 20%; in [12] (setting [23]) it was 0%. Further, the pest or weed control at 500 g/ha in experiment [4] (setting [14]) was found to be 90%. Moreover, the results for the plant injury at 125 g/ha (in [11] (setting [21]); with corn (Zea mays)) were 20% and 50%, respectively.

On to `CN1C[C@H](c2ccc(C(F)(F)F)cc2)[C@@H](C(=O)Nc2ccc(F)cc2C(F)(F)F)C1=O` [Compound 942], for which the pest or weed control at 250 g/ha is 0% in [1], 0% in the experiment with rice (Oryra sativa), 40% in [2] and 0% in [3]. The pest or weed control at 125 g/ha in [4] (setting [13]) is 90%; in [5] (Postemergence, visual injury after approximately 10 d, 0 to 100 scale where 0 is no effect and 100 is complete control, read-out: Plant response rating, Foxtail, Giant), 80%; in experiment [6] (Postemergence, visual injury after approximately 10 d, 0 to 100 scale where 0 is no effect and 100 is complete control, read-out: Plant response rating, Barnyardgrass), 60%; in [7] (Postemergence, visual injury after approximately 10 d, 0 to 100 scale where 0 is no effect and 100 is complete control, read-out: Plant response rating, Blackgrass) it was 70%; in [8] (Postemergence, visual injury after approximately 10 d, 0 to 100 scale where 0 is no effect and 100 is complete control, read-out: Plant response rating, Pigweed), 70%; in [9] (Postemergence, visual injury after approximately 10 d, 0 to 100 scale where 0 is no effect and 100 is complete control, read-out: Plant response rating, Galium), 50%. Also, the pest or weed control at 125 g/ha in experiment [10] (Postemergence, visual injury after approximately 10 d, 0 to 100 scale where 0 is no effect and 100 is complete control, read-out: Plant response rating, Ryegrass, Italian) amounted to 0%; with Kochia (Kochia scoparia) (Postemergence, visual injury after approximately 10 d, 0 to 100 scale where 0 is no effect and 100 is complete control, read-out: Plant response rating, Kochia), 30%; in [12] (Postemergence, visual injury after approximately 10 d, 0 to 100 scale where 0 is no effect and 100 is complete control, read-out: Plant response rating, Ragweed) it was 0%. For the same compound, in experiment [4] (preemergence, visual injury rating about 10 d after treatment, 0 to 100 scale (0 no effect, 100 complete control), read-out: Foxtail, Giant plant response rating), the pest or weed control at 500 g/ha turned out to be 90%. For the same compound, the plant injury at 125 g/ha in [11] (Postemergence, visual injury after approximately 10 d, 0 to 100 scale where 0 is no effect and 100 is complete control, read-out: Plant response rating, Wheat) turned out to be 20%. In addition, the Corn plant response rating (crop injury, 0 = no effect, 100 = complete kill) at 125 g/ha with corn (Zea mays) (Postemergence, visual injury after approximately 10 d, 0 to 100 scale where 0 is no effect and 100 is complete control) worked out at 0%.
